# Test results taken from patent US12421253B2 (Mirati Therapeutics, Inc., priority 2020, dated 2025).
# Legend:
# [1] = biological target: T1, KRas^G12D (Homo sapiens, UniProt P01116, G12D); test: KRas binding assay (TR-FRET displacement of Cy5 labelled tracer)
# T1 construct: […]; biotin (biotinylated); purchased Accelegan Inc
# Protocol: (§1) The ability of a compound to bind to KRas was measured using a TR-FRET displacement assay. […] After a 60-minute incubation at room temperature, the reaction was measured using a BMG LABTECH CLARIO star Plus via TR-FRET. […] The POC values were fit to a 4-parameter IC50 equation and the IC50 value reported.
# [2] = biological target: T2, KRas^G12A (Homo sapiens, UniProt P01116, G12A); test: as above
# T2 construct: […]; biotin (biotinylated); purchased Accelegan Inc
# Protocol: as §1
# [3] = biological target: T3, KRas^G12V (Homo sapiens, UniProt P01116, G12V); test: as above
# T3 construct: […]; biotin (biotinylated); purchased Accelegan Inc
# Protocol: as §1
# [4] = biological target: T4, KRas^G12S (Homo sapiens, UniProt P01116, G12S); test: as above
# T4 construct: […]; biotin (biotinylated); purchased Accelegan Inc
# Protocol: as §1
# [5] = biological target: KRas^G12C (Homo sapiens, UniProt P01116, G12C); test: biochemical
# Protocol: as §1
# [6] = biological target: KRas^Q61H (Homo sapiens, UniProt P01116, Q61H); test: biochemical
# Protocol: as §1
# [7] = biological target: KRas^G13D (Homo sapiens, UniProt P01116, G13D); test: biochemical
# Protocol: as §1
# [8] = biological target: T5, KRas^WT (Homo sapiens, UniProt P01116); test: KRas binding assay (TR-FRET displacement of Cy5 labelled tracer)
# T5 construct: […]; biotin (biotinylated); purchased Accelegan Inc
# Protocol: as §1
# [9] = biological target: T6, KRas^G12R (Homo sapiens, UniProt P01116, G12R); test: as above
# T6 construct: […]; biotin (biotinylated); purchased Accelegan Inc
# T6 sequence (P01116 1-169 isoform P01116-2 G12R): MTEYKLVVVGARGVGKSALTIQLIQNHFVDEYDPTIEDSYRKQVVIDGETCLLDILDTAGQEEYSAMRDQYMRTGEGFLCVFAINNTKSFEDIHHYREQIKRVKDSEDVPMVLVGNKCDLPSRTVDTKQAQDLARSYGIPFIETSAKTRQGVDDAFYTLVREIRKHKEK
# Protocol: as §1
# T3 sequence (P01116 1-169 isoform P01116-2 G12V): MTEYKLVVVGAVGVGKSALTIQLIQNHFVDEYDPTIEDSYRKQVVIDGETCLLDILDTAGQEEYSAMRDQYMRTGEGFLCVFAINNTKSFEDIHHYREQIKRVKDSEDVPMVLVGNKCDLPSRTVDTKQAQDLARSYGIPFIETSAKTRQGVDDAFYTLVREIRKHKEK
# T5 sequence (P01116 1-169 isoform P01116-2): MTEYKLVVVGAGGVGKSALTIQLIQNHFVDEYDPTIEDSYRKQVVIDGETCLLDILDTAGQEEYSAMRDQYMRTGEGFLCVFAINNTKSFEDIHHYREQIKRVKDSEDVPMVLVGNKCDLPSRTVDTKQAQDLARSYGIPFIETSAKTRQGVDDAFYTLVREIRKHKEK
# Sequence of KRas^G12C (P01116 1-169 isoform P01116-2 G12C): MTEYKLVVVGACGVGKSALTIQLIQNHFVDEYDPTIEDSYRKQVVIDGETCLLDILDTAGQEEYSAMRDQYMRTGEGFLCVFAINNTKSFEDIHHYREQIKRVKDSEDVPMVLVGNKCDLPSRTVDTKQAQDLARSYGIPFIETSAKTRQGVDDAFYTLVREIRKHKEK
# Sequence of KRas^G13D (P01116 1-169 isoform P01116-2 G13D): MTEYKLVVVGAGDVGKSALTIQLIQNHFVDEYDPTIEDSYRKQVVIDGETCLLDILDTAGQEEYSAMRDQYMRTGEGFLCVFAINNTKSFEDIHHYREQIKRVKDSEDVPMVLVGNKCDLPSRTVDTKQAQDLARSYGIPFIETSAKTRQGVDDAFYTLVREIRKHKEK
# T4 sequence (P01116 1-169 isoform P01116-2 G12S): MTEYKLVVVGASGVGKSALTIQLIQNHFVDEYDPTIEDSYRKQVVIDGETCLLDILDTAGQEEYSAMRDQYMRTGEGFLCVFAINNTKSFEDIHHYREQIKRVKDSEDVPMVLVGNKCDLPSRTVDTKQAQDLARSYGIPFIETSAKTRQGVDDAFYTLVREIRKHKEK
# Sequence of KRas^Q61H (P01116 1-169 isoform P01116-2 Q61H): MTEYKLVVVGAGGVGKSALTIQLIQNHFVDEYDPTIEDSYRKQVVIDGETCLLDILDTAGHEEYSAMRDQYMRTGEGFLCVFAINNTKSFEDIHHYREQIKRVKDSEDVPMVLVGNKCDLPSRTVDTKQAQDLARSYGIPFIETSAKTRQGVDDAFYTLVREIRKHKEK
# T1 sequence (P01116 1-169 isoform P01116-2 G12D): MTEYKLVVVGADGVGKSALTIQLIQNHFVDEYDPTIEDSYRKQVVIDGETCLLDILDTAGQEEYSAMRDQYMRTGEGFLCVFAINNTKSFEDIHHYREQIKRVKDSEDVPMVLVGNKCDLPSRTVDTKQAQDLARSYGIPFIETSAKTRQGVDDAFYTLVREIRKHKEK
# T2 sequence (P01116 1-169 isoform P01116-2 G12A): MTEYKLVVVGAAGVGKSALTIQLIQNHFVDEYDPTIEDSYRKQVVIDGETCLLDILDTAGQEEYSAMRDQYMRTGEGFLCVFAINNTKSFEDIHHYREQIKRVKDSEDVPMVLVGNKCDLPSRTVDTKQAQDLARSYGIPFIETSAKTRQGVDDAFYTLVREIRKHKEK
SMILES,IC50 [1] [nM],IC50 [2] [nM],IC50 [3] [nM],IC50 [4] [nM],IC50 [5] [nM],IC50 [6] [nM],IC50 [7] [nM],IC50 [8] [nM],IC50 [9] [nM]
"CCc1cccc2cccc(N3CCc4c(nc(OCC56CCCN5CCC6)nc4N4CCC(CO)C(O)C4)C3)c12 (stereo not drawn) [Example 86, 1-(7-(8-ethylnaphthalen-1-yl)-2-((tetrahydro-1H-pyrrolizin-7a(5H)-yl)methoxy)-5,6,7,8-tetrahydropyrido[3,4-d]pyrimidin-4-yl)-4-(hydroxymethyl)piperidin-3-ol]",1320,225,498,304,576,194,151,158,465
"CCc1cccc2cccc(N3CCc4c(nc(OCC56CCCN5CCC6)nc4N4CCC(OCC(N)=O)CC4)C3)c12 [Example 89, 2-((1-(7-(8-ethylnaphthalen-1-yl)-2-((tetrahydro-1H-pyrrolizin-7a(5H)-yl)methoxy)-5,6,7,8-tetrahydropyrido[3,4-d]pyrimidin-4-yl)piperidin-4-yl)oxy)acetamide]",7110,427,593,721,465,929,1130,959,219
"CCc1cccc2cccc(N3CCc4c(nc(OCC56CCCN5CCC6)nc4N4CCCC(NC(=O)N(C)C)C4)C3)c12 (stereo not drawn) [Example 91, 3-(1-(7-(8-ethylnaphthalen-1-yl)-2-((tetrahydro-1H-pyrrolizin-7a(5H)-yl)methoxy)-5,6,7,8-tetrahydropyrido[3,4-d]pyrimidin-4-yl)piperidin-3-yl)-1,1-dimethylurea]",1040,292,435,459,382,963,919,765,229
"O=C1NC(=O)C2CN(c3nc(OCC45CCCN4CCC5)nc4c3CCN(c3cccc5cccc(Br)c35)C4)CC12 (stereo not drawn) [Example 78, 5-(7-(8-bromonaphthalen-1-yl)-2-((hexahydro-1H-pyrrolizin-7a-yl)methoxy)-5,6,7,8-tetrahydropyrido[3,4-d]pyrimidin-4-yl)tetrahydropyrrolo[3,4-c]pyrrole-1,3(2H,3aH)-dione]",30,59,41,22,80,112,67,73,81
"CCc1cccc2cccc(N3CCc4c(nc(OCC56CCCN5CCC6)nc4N4CCC(c5[nH]ncc5N)C4)C3)c12 (stereo not drawn) [Example 46, 5-(1-(7-(8-ethylnaphthalen-1-yl)-2-((hexahydro-1H-pyrrolizin-7a-yl)methoxy)-5,6,7,8-tetrahydropyrido[3,4-d]pyrimidin-4-yl)pyrrolidin-3-yl)-1H-pyrazol-4-amine]",6750,448,232,611,401,2230,2860,1820,277
"CCc1cccc2cccc(N3CCc4c(nc(OCC56CCCN5CCC6)nc4N4CC[C@H]5C(=O)NC[C@H]5C4)C3)c12 [Example 141, (3aS,7aR)-5-(7-(8-ethylnaphthalen-1-yl)-2-((tetrahydro-1H-pyrrolizin-7a(5H)-yl)methoxy)-5,6,7,8-tetrahydropyrido[3,4-d]pyrimidin-4-yl)octahydro-1H-pyrrolo[3,4-c]pyridin-1-one]",8520,2950,1260,2490,2300,1610,1200,1620,1640
"CCc1cccc2cccc(N3CCc4c(nc(OCC56CCCN5CCC6)nc4N4CCCC(c5nc(C)c(C)[nH]5)C4)C3)c12 (stereo not drawn) [Example 120, 4-(3-(4,5-dimethyl-1H-imidazol-2-yl)piperidin-1-yl)-7-(8-ethylnaphthalen-1-yl)-2-((tetrahydro-1H-pyrrolizin-7a(5H)-yl)methoxy)-5,6,7,8-tetrahydropyrido[3,4-d]pyrimidine]",6380,1530,4210,2480,573,2100,2010,1810,1320
"CCc1cccc2cccc(N3CCc4c(nc(OCC56CCCN5CCC6)nc4N4CCCC(N5CCCS5(=O)=O)C4)C3)c12 (stereo not drawn) [Example 85, 2-(1-(7-(8-ethylnaphthalen-1-yl)-2-((tetrahydro-1H-pyrrolizin-7a(5H)-yl)methoxy)-5,6,7,8-tetrahydropyrido[3,4-d]pyrimidin-4-yl)piperidin-3-yl)isothiazolidine 1,1-dioxide]",1030,223,491,263,274,213,186,140,399
"CCc1cccc2cccc(N3CCc4c(nc(OCC56CCCN5CCC6)nc4N4CCCC(N5CC(C)CS5(=O)=O)C4)C3)c12 (stereo not drawn) [Example 83, 2-(1-(7-(8-ethylnaphthalen-1-yl)-2-((tetrahydro-1H-pyrrolizin-7a(5H)-yl)methoxy)-5,6,7,8-tetrahydropyrido[3,4-d]pyrimidin-4-yl)piperidin-3-yl)-4-methylisothiazolidine 1,1-dioxide]",929,206,427,240,190,189,139,83,311
"CCc1cccc2cccc(N3CCc4c(nc(OCC56CCCN5CCC6)nc4N4CCCC(c5nc(C)c(C(=O)NC6CCC6)o5)C4)C3)c12 (stereo not drawn) [Example 140, N-cyclobutyl-2-(1-(7-(8-ethylnaphthalen-1-yl)-2-((tetrahydro-1H-pyrrolizin-7a(5H)-yl)methoxy)-5,6,7,8-tetrahydropyrido[3,4-d]pyrimidin-4-yl)piperidin-3-yl)-4-methyloxazole-5-carboxamide]",5210,1660,2380,2000,1180,2230,1760,1920,1440
"CCc1cccc2cccc(N3CCc4c(nc(OCC56CCCN5CCC6)nc4N4CCOC(CC(N)=O)C4)C3)c12 (stereo not drawn) [Example 103, 2-(4-(7-(8-ethylnaphthalen-1-yl)-2-((tetrahydro-1H-pyrrolizin-7a(5H)-yl)methoxy)-5,6,7,8-tetrahydropyrido[3,4-d]pyrimidin-4-yl)morpholin-2-yl)acetamide]",2580,785,1390,791,427,690,691,718,364
"CCc1cccc2cccc(N3CCc4c(nc(OCC56CCCN5CCC6)nc4N4CCn5ncc(S(C)(=O)=O)c5C4)C3)c12 [Example 144, 7-(8-ethylnaphthalen-1-yl)-4-(3-(methylsulfonyl)-6,7-dihydropyrazolo[1,5-a]pyrazin-5(4H)-yl)-2-((tetrahydro-1H-pyrrolizin-7a(5H)-yl)methoxy)-5,6,7,8-tetrahydropyrido[3,4-d]pyrimidine]",1260,8490,6280,5680,4980,10600,10100,7510,11100
"CCc1cccc2cccc(N3CCc4c(nc(OCC56CCCN5CCC6)nc4N4C[C@@H](C)C[C@H](O)C4)C3)c12 [Example 97, (3S,5S)-1-(7-(8-ethylnaphthalen-1-yl)-2-((tetrahydro-1H-pyrrolizin-7a(5H)-yl)methoxy)-5,6,7,8-tetrahydropyrido[3,4-d]pyrimidin-4-yl)-5-methylpiperidin-3-ol]",1160,484,567,520,558,400,336,321,499
"CCc1cccc2cccc(N3CCc4c(nc(OCC56CCCN5CCC6)nc4N(C)CC(C)(C)O)C3)c12 [Example 113, 1-((7-(8-ethylnaphthalen-1-yl)-2-((tetrahydro-1H-pyrrolizin-7a(5H)-yl)methoxy)-5,6,7,8-tetrahydropyrido[3,4-d]pyrimidin-4-yl)(methyl)amino)-2-methylpropan-2-ol]",843,464,450,601,418,523,654,509,756
"CCc1cccc2cccc(N3CCc4c(nc(OCC56CCCN5CCC6)nc4N4CCCC(O)(C(F)F)C4)C3)c12 (stereo not drawn) [Example 44, 3-(difluoromethyl)-1-(7-(8-ethylnaphthalen-1-yl)-2-((hexahydro-1H-pyrrolizin-7a-yl)methoxy)-5,6,7,8-tetrahydropyrido[3,4-d]pyrimidin-4-yl)piperidin-3-ol]",162,202,200,202,232,226,163,191,308
